How the values were obtained:
[1] = test system: modified ribosomes from clones 010328R4; experiment: In vitro translation: incorporation into position 49 of DHFR (pETDH49), S-30 from clone 010328R4; assay type: biochemical, E. coli; conditions: clone 010328R4 (group 1)
Experimental: (§1) In vitro Protein Translation. Protein translation reactions were carried out in 12-2000 μL of incubation mixture containing 0.4 μL/μL of S-30 system, 100 ng/μL of plasmid, 35 mM Tris acetate, pH 7.4, 190 mM potassium glutamate, 30 mM ammonium acetate, 2 mM DTT, 0.2 mg/mL total E. coli tRNA, 3.5% PEG 6000, 20 μg/mL folinic acid, 20 mM ATP and GTP, 5 mM CTP and UTP, 100 μM amino acids mixture, 0.5 μCi/μL of ^35S-methionine for analytical purposes only and 1 μg/mL rifampicin. In the case of plasmids having a gene with a TAG codon, a suppressor tRNA was added to a concentration of 0.8 μg/μL. Reactions were carried out at 37° C. for 1 h (for 12 μL reaction mixtures) to 1.5 h (for 2000 μL reaction mixtures) and terminated by chilling on ice. Aliquots from in vitro translation mixtures were analyzed by SDS-PAGE followed by quantification of the radioactive bands by phosphorimager analysis.
The other two compounds gave about 1.5-2 times lower suppression efficiency (7-9 and 5-6%).

[2] = test system: modified ribosomes (23S rRNA modified); experiment: In vitro translation: suppression of UAG codon at position 10 of DHFR mRNA, S-30 systems having modified ribosomes; assay type: biochemical, E. coli; conditions: position 10 of E. coli DHFR, relative to wild-type DHFR = 100
Experimental: Preparation of Aminoacyl-tRNACUAs. The activation of suppressor tRNACUAs was carried out as described previously.^4,5 Briefly, 100-μL reaction mixture of 100 mM Na Hepes, pH 7.5, contained 1.0 mM ATP, 15 mM MgCl2, 100 μg of suppressor tRNACUA-COH, 0.5 A260 unit of N-pentenoyl-protected aminoacyl-pdCpA, 15% DMSO, and 100 units of T4 RNA ligase. The reaction mixture was incubated at 37° C. for 1.5 h and quenched by the addition of 0.1 vol of 3 M NaOAc, pH 5.2. The N-protected aminoacylated tRNA was precipitated with 3 vol of cold ethanol. The efficiency of ligation was estimated by 8% polyarylamide-7 M urea gel electrophoresis (pH 5.0).
The N-pentenoyl-protected aminoacyl-tRNACUAs were deprotected by treatment with 5 mM aqueous […] at 25° C. for 15 min. The solution was centrifuged, and the supernatant was adjusted to 0.3 M NaOAc and treated with 3 vol of cold ethanol to precipitate the aminoacylated tRNA. The tRNA pellet was collected by centrifugation, washed with 70% aq EtOH, air dried and dissolved in 20 μL of RNase free water.
Preparation of S-30 Extracts from Cells Having Modified Ribosomes. Aliquots (5-10 μL) from liquid stocks of E. coli BL-21 (DE-3) cells, harboring plasmids with a wild-type or modified rrnB gene, were placed on LB agar supplemented with 100 µg/mL of ampicillin and grown at 37° C. for 16-18 h. One colony was picked from each agar plate and transferred into 3 mL of LB medium supplemented with 100 μg/mL of ampicillin and 0.5 mM IPTG.
as §1
Incorporation of Dipeptides 2, 3 and 4 into DHFR Using the Modified Ribosomes. Initially, glycylphenylalanine (2) was chosen to screen the selected modified ribosomes for their ability to incorporate a dipeptide into DHFR. It was anticipated that minimal steric hindrance and more flexibility at the N-terminus of the dipeptide (a glycine residue) would enable optimal positioning of the amine for a nucleophilic attack in the PTC of the modified ribosomes. A modified DHFR construct, having a TAG codon in position 10 (pETDH10 plasmid) was used for the incorporation of glycylphenylalanine.
The suppression efficiencies were expressed relative to the wild-type DHFR synthesis. As a negative control, wild-type DHFR synthesis in the presence of nonacylated-tRNACUA was measured for each experiment. The amounts of DHFR produced were quantified with a phosphoimager, which monitored the incorporation of ^35S-methionine into DHFR. Using glycylphenylalanyl-tRNACUA, S-30 preparations having the modified ribosomes from clone groups 1, 2, 3 and 9 produced full length DHFR in ˜9% yields relative to the wild-type DHFR synthesis (Table 3). The modified ribosomes from clone groups 4-8 incorporated glycylphenylalanine (2) with low yields (˜2-4%). For dipeptide 2, best incorporation yields (up to 12%) were obtained by S-30 system having modified ribosomes from clone group 9 (2057AGUGAGA2063 and 2502AUCCGA2507).

[3] = test system: modified ribosomes from clone 010326R6; experiment: In vitro translation: suppression of TAG codon at position 66 of GFP (pETGFP66), S-30 from clone 010326R6; assay type: biochemical, Escherichia coli
Experimental: as §1
The free amino acids both have λex in the range 296-302 nm but the λem of 7 is somewhat red-shifted compared to that of 6. […] As a negative control, wild-type GFP synthesis from the modified mRNA in the presence of nonacylated tRNACUA was measured for each experiment. The amounts of GFP produced were quantified with a phosphoimager, which monitored the incorporation of ^35S-methionine into proteins. […]

[4] = Fluorescence emission of dipeptidomimetics and of proteins containing them; assay type: physicochemical; conditions: as stated for comparison of 6 and wild-type BFP
Text: Further, we prepared a modified DHFR having dipeptidomimetic 6 at position 10 at larger scale to investigate the fluorescence intensity of 6 in protein. The fluorescence emission spectra of wild-type DHFR and modified DHFR having 6 at position 10 were compared (FIG. 8) at 302 nm excitation wavelength.
Fluorescence Emission of an Artificial BFP Having Dipeptidomimetic 6. We designed fluorescent dipeptidomimetics 6-10 as stable analogues of GFP-chromophore. We anticipated their use to create artificial fluorescent proteins; to verify the same we replaced the chromophore of BFP with dipeptidomimetic 6 in order to prepare an artificial fluorescent protein. The fluorescence emission of 6 is near blue region of visible light spectrum (˜400 nm). Therefore, we compared the fluorescence emission intensity of artificial FP (artificial BFP 1) having 6 at position 66 with wild-type BFP, which has a fluorescence emission ˜450 nm. […] Wild-type and artificial BFP were prepared in a larger scale in a cell free translation system for fluorescence measurements.
A modified BFP construct, having a TAG codon in position 66 and a suppressor tRNACUA activated with 6 were used for the preparation of artificial BFP 1. […] As illustrated from FIG. 11, fluorescence intensity of artificial BFP 1 (emission maximum ˜375 nm) having 6 in position 66 is 20-fold greater than the wild-type BFP at similar protein concentrations. […]

Row | Structure (SMILES) | suppression efficiency (full-length DHFR synthesis relative to wild-type) [1] | Suppression efficiency in different S-30 systems, having modified ribosomes (%) ([2]; clone group 1) | Suppression efficiency in different S-30 systems, having modified ribosomes (%) ([2]; clone group 9) | suppression yield (full length GFP) relative to wild-type GFP synthesis [3] [%] | fluorescence emission [4] [nm]
1 | C=CCCC(=O)N[C@H]1CCCCN(CC(=O)OC2C(COP(=O)(O)OC3CC(n4ccc(N)nc4=O)OC3COP(=O)(O)O)OC(n3cnc4c(N)ncnc43)C2O)C1=O (stereo partly drawn) [cyclic peptidomimetic 145, (S)-2-(2-Oxo-3-(pent-4-enamido)azepan-1-yl)acetyl-pdCpA] | 11-13% |  |  |  | 
2 | COc1ccc(-c2oc(CN)nc2C(=O)O)cc1 [dipeptidomimetic 6] |  | 10.2 ± 1.7 | 9.8 ± 2.1 | ~6.5 | ~400
